# Source: PubChem BioAssay (NCI)
# “And” between values parts separate entries of the source, which are not always exact repeats. Identical values can stand only once.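 Five compound concentrations were applied to cells in 96-well plates for 48 hours; endpoints were derived by simple linear interpolation of the resulting dose-response curve. GI50 is the concentration that inhibits growth by half. At the TGI there is no net growth.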
# How the values were obtained:
# Assay in all cases: NCI anticancer screen, dose series, 48 h
# [1] = test system: A549 NSCLC
# [2] = test system: DU-145 prostate
# [3] = test system: EKVX NSCLC
# [4] = test system: HCC-2998 colon
# [5] = test system: HCT-15 colon
# [6] = test system: HT29 colon
# [7] = test system: IGROV1 ovarian
# [8] = test system: K-562 leukemia
# [9] = test system: MDA-MB-435
# [10] = test system: NCI-H522 lung
# [11] = test system: OVCAR-8 ovarian
# [12] = test system: SF-539 CNS
# [13] = test system: SK-MEL-28 melanoma
Compound,TGI [1],TGI [2],TGI [3],TGI [4],TGI [5],TGI [6],TGI [7],TGI [8],TGI [9],TGI [10],TGI [11],TGI [12],TGI [13],GI50 [1],GI50 [2],GI50 [4],GI50 [5],GI50 [6],GI50 [7],GI50 [9]
CCNc1ncnc2c1nnn2CC,> 100 µM,> 100 µM,> 100 µM,> 100 µM,> 100 µM,> 100 µM,> 100 µM,> 100 µM,> 100 µM,> 100 µM,> 100 µM,> 100 µM,> 100 µM,,,,,,,
COc1ccc2c(-c3ccc(OCCN(C)C)cc3)c(Oc3ccc(Cl)cc3)c(=O)oc2c1,18.7 µM,32.7 µM,26.2 µM,9.63 µM,15.5 µM,> 46.7 µM,14.1 µM,4.95 µM,8.66 µM,12.1 µM,> 46.9 µM,> 30.8 µM,3.57 µM,,,,,,,
Cc1nn(C(=O)c2ccncc2)c2c1C(c1cccc([N+](=O)[O-])c1)SC(N)=N2 (stereo not given),> 10 µM,> 10 µM,> 10 µM,> 10 µM,> 10 µM,> 10 µM,> 10 µM,> 10 µM,> 10 µM,> 10 µM,> 10 µM,> 10 µM,> 10 µM,,,,,,,
COC1=CC(=O)c2c(O)c3c(c(O)c2C1=O)C[C@](C)(O)C[C@@H]3O,9.81 µM,16 µM,23.6 µM,10.7 µM,15.8 µM,8.05 µM,17.2 µM,19.4 µM,3.34 µM,12.4 µM,15.7 µM,9.89 µM,18.4 µM,,,,,,,
CC(C)C(C/C=C1/CC(CO)(COC(=O)C2CCCCC2)OC1=O)C(C)C (stereo not given),26.4 µM,28.8 µM,42.8 µM,59.8 µM,39.6 µM,75.4 µM,34.2 µM,> 100 µM,> 100 µM,34.1 µM,32.7 µM,29.1 µM,35.1 µM,,,,,,,
COC(=O)/C(=C\c1ccco1)P(=O)(OC)OC,> 100 µM,> 100 µM,> 100 µM,> 100 µM,> 100 µM,69.7 µM,> 100 µM,> 100 µM,> 100 µM,5.52 µM,> 100 µM,65.9 µM,> 100 µM,,,,,,,
Cc1ccc(OCC2OC(n3cnc4c(Cl)ncnc43)CC2Oc2ccc(C)cc2)cc1 (stereo not given),15.9 µM and 37 µM,3.65 µM and 28.1 µM,7.18 µM and 10.2 µM,12.8 µM and 37 µM,4.28 µM and 41.6 µM,3.13 µM and 21.2 µM,5.88 µM and 14 µM,> 23.9 µM and 61.8 µM,21 µM and 16.4 µM,6.66 µM and 3.82 µM,24.6 µM and 24.2 µM,50.6 µM and 36.1 µM,14.9 µM,7.37 µM and 18.9 µM,1.96 µM and 13.3 µM,5.44 µM and 16.8 µM,1.94 µM and 11.7 µM,1.69 µM and 6.15 µM,2.43 µM and 5.87 µM,5.84 µM and 2 µM
CN(CCc1ccc(Cl)c(Cl)c1)CCN(C)CCN1CCCC1,28.3 µM,86.4 µM,35.5 µM,4.5 µM,38.4 µM,12.5 µM,43.7 µM,7.27 µM,4.5 µM,20.9 µM,62 µM,17.5 µM,3.34 µM,,,,,,,
N=C(N)SCCCN,> 100 µM,51.1 µM,> 91.4 µM,20.3 µM,> 100 µM,62.3 µM,15.6 µM,> 66.8 µM,14 µM,25.5 µM,> 100 µM,30.9 µM,> 86 µM,,,,,,,
COc1nc(OC)nc(-c2cccc(F)c2)n1,52.6 µM,26.8 µM,18.6 µM,28.2 µM,29.3 µM,57.9 µM,31.8 µM,53.7 µM,31 µM,42.4 µM,69.2 µM,32.5 µM,39.6 µM,,,,,,,
CC1(C)CCCCCCCCCC(C)(CCCCCCCCCCCCO)C1=O (stereo not given),29.9 µM,32 µM,34.8 µM,13.7 µM,55 µM,31 µM,33.7 µM,54.3 µM,33 µM,30.3 µM,28.4 µM,32.5 µM,32.6 µM,,,,,,,
C=C(Br)CNCC(=C)Br,> 100 µM,> 100 µM,> 100 µM,> 100 µM,> 100 µM,> 100 µM,> 100 µM,> 100 µM,> 100 µM,> 100 µM,> 100 µM,> 100 µM,> 100 µM,,,,,,,
Cc1cc(O)ccc1C1(c2ccc(F)cc2)OC(=O)c2ccccc21 (stereo not given),18.3 µM,16.1 µM,12.6 µM,15.3 µM,12.4 µM,18 µM,10.2 µM,> 72.9 µM,26.9 µM,15.6 µM,2.05 µM,9.29 µM,25.8 µM,,,,,,,
c1csc(-c2csc(-c3ccsc3)c2)c1,> 100 µM,> 100 µM,> 100 µM,> 100 µM,> 100 µM,> 100 µM,> 100 µM,> 100 µM,> 100 µM,> 100 µM,> 100 µM,98.6 µM,> 100 µM,,,,,,,
S=C(N/N=C\c1ccccn1)N(Cc1ccccn1)Cc1ccccn1,> 42 µM,19.7 µM,17.2 µM,> 43.1 µM,> 43.2 µM,16.2 µM,11.2 µM,> 100 µM,41.8 µM,33.1 µM,12.7 µM,> 100 µM,> 49.7 µM,,,,,,,
Cn1c2c(c3ccccc31)CCN1C(=O)C3SC21C1C(=O)N(c2ccccc2)C(=O)C31 (stereo not given),> 100 µM,> 100 µM,> 100 µM,> 100 µM,> 100 µM,> 100 µM,> 100 µM,> 100 µM,> 100 µM,> 100 µM,> 100 µM,> 100 µM,> 100 µM,,,> 100 µM,,,,
CCn1c2ccc(O)c(C(=O)OC)c2c2cc3ccccc3c(O)c21,83 µM,40.8 µM,67.4 µM,38.3 µM,56 µM,56.2 µM,31.2 µM,> 100 µM,48.3 µM,41.2 µM,56.9 µM,49.2 µM,87.4 µM,,,,,,,
CC(NNC(=O)c1ccncc1)c1ccc(Cl)c(Cl)c1 (stereo not given),> 100 µM,> 100 µM,> 100 µM,> 100 µM,> 100 µM,> 100 µM,> 100 µM,> 100 µM,> 100 µM,> 100 µM,> 100 µM,> 100 µM,> 100 µM,,,,,,,
O=C(O)c1cc(Cl)cc2c1NC1(N2)C(=O)Nc2ccccc21 (stereo not given),> 100 µM,> 100 µM,> 100 µM,> 100 µM,> 100 µM,> 100 µM,> 100 µM,> 100 µM,> 100 µM,> 100 µM,> 100 µM,> 100 µM,> 100 µM,,,,,,,
CNC(=S)N/N=C(\C)c1nc2ncccc2[nH]1,> 100 µM,> 100 µM,> 100 µM,> 100 µM,> 100 µM,> 100 µM,> 100 µM,> 100 µM,> 100 µM,> 73.3 µM,> 100 µM,> 100 µM,> 100 µM,,,,,,,
CN(C)Cc1cc(C(=O)/C=C/c2cccc(Cl)c2)cc(CN(C)C)c1O,28.8 µM,19.2 µM,25.4 µM,23.8 µM,12.7 µM,16.6 µM,14.9 µM,11.4 µM,12.6 µM,33 µM,61.3 µM,19.5 µM,17.1 µM,,,,,,,
CC(C)(C)c1cc(C(=O)/C=C/c2ccn[nH]2)cc(C(C)(C)C)c1O,9.8 µM,7.52 µM,28.4 µM,3.37 µM,4.71 µM,6.59 µM,3.97 µM,10.3 µM,8.34 µM,2.73 µM,6.02 µM,9.07 µM,11.7 µM,,,,,,,
O=C(/C=C(\O)c1ccccc1)/C(=C/C(=O)c1ccccc1)NN=C(c1ccccc1)c1ccccc1,> 100 µM,> 100 µM,> 100 µM,58.7 µM,> 100 µM,> 100 µM,> 100 µM,> 100 µM,> 100 µM,63 µM,> 100 µM,> 100 µM,> 100 µM,,,,,,,
Cc1ccc(N=C2SC(c3ccc(C)cc3)(c3ccc(C)cc3)c3ccccc32)cc1,> 100 µM,> 100 µM,> 100 µM,> 100 µM,> 100 µM,> 100 µM,> 100 µM,> 100 µM,> 100 µM,> 100 µM,> 100 µM,> 100 µM,> 100 µM,,,,,,,
